These results are taken from article PMC10315065 (Journal of Innate Immunity, 2023).

A short description of assay [1]: Downstream effects of scrambled peptide. The conditions noted are these: statement on negative control peptide.
For assay [2], the system named is intracellular Mycobacterium tuberculosis in macrophages. The conditions noted are these: cited from earlier work; for autophagy activation and M.tb elimination: via induction of cathelicidin LL-37.
Another assay deals with THP-1 cells. As to the kind of experiment: Endocytosis of BSA-FITC. Type of assay: cell-based. Conditions: BSA-FITC 10 μg, 37°C, 30 min; PMA-activated THP-1.
Assay [3] has as its system GAPDH KD and wild-type cells. Conditions: induced with actinomycin D; cited from earlier work.
A further assay concerns TLR-4, THP-1 cells. As to the kind of experiment: TLR-4 membrane expression on LPS treatment. Type of assay: cell-based. The conditions noted are these: LPS 1 ug, 24 h; PMA-activated THP-1.
The subject of the next assay is J774 macrophages. As to the kind of experiment: Flow cytometry binding/internalization of labelled peptide, J774. Type of assay: cell-based, mouse. Conditions: n = 3. (In general: A flow cytometer gives signals particle by particle.)
Another assay concerns cell surface GAPDH, J774. Type of assay: cell-based, mouse. Conditions: KN-62 100 nM, 4 h; J774 wild-type; n = 3.
In another assay the test system is peritoneal macrophages. As to the kind of experiment: Flow cytometry binding/uptake of LL-37-FAM, peritoneal macrophages. The class given is cell-based, C57BL/6 mice.

Starred links: 1 amine or outer side, 2 acyl side, 3 side chain; linkers in the order of their positions; H or OH if unused. Positions of bridges follow the written chain, without caps; N, C: chain ends. Non-standard residues stand in square brackets, D forms with d. Residues, ends and D or L forms follow the SMILES beside them. Chains are numbered I, II in the order given. Actinocin(9to1) = Cc1c2oc3c(C)ccc(C(=O)[*:1])c3nc-2c(C(=O)[*:2])c(N)c1=O; NMeV = CN[C@H](C(=O)O)C(C)C; Sar = CNCC(=O)O

“GLKLRFEFSKIKGEFLKTPEVRFRDIKLKDNRISVQR [scrambled peptide]”: the “downstream effects of scrambled peptide” value in assay [1] is on record as “does not show downstream effects like the LL-37 peptide”.

On to `C=C1/C(=C\C=C2/CCC[C@]3(C)[C@@H]([C@H](C)CCCC(C)(C)O)CC[C@@H]23)C[C@@H](O)C[C@@H]1O` [vitamin 1,25-D3], for which, in assay [2], the “autophagy activation and M.tb elimination” value is reported as “activate the antibacterial autophagy mechanism”.

In the case of BSA: BSA-FITC, endocytosis control, the “endocytosis of BSA, empty vector vs GAPDH KD” value in the assay on THP-1 cells is recorded as “could equally well carry out endocytosis of BSA”.

For `Cc1c2oc3c(C)ccc(C(=O)N[C@@H]4C(=O)N[C@H](C(C)C)C(=O)N5CCC[C@H]5C(=O)N(C)CC(=O)N(C)[C@@H](C(C)C)C(=O)O[C@@H]4C)c3nc-2c(C(=O)N[C@@H]2C(=O)N[C@H](C(C)C)C(=O)N3CCC[C@H]3C(=O)N(C)CC(=O)N(C)[C@@H](C(C)C)C(=O)O[C@@H]2C)c(N)c1=O` [actinomycin D] (I: T[dV]P[Sar][NMeV] / II: T[dV]P[Sar][NMeV]; ester I:1-I:C, II:1-II:C; linker I:N-II:N via Actinocin(9to1)), the “induction of apoptosis, GAPDH KD vs wild-type” value in assay [3] is reported as “comparable”.

For the molecule lipopolysaccharide, in the assay with TLR-4, THP-1 cells, the “TLR-4 membrane expression, empty vector and GAPDH KD” value is on record as “upregulation of TLR-4 membrane expression levels”.

Consider `CN([C@@H](Cc1ccc(OS(=O)(=O)c2cccc3cnccc23)cc1)C(=O)N1CCN(c2ccccc2)CC1)S(=O)(=O)c1cccc2cnccc12` [KN-62, 1-(N,O-bis(5-Isoquinolinesulfonyl)-N-methyl-L-tyrosyl)-4-phenylpiperazine], for which the “LL-37 uptake with KN-62” value with J774 macrophages (KN-62 100 nM, 4 h, J774 wild-type) was “inhibition of LL-37 uptake into cells”. Besides, the “effect on LL-37-induced anti-mycobacterial effects” value in assay [2] (KN-62) was “does not inhibit LL-37-induced anti-mycobacterial effects”. In addition, the “cell surface GAPDH expression with KN-62” value in the assay with cell surface GAPDH, J774 is on record as “decrease in cell surface GAPDH expression”.

Regarding `O=C(O)CCCc1ccccc1` [phenylbutyrate], the “autophagy activation and M.tb elimination” value in assay [2] is recorded as “activate the antibacterial autophagy mechanism”.

For “5-FAM-LC-LLGDFFRKSKEKIGKEFKRIVQRIKDFLRNLVPRTES [LL-37-FAM]”, the “LL-37 membrane accumulation and uptake, IFNγ-treated” value in the assay on J774 macrophages (IFNγ-treated subsets vs control cells) is recorded as “initial higher accumulation of FAM-LL-37 at their membrane, followed by increase in LL-37 uptake into the cytoplasm”. Moreover, the “cell surface LL-37 binding and uptake, M.tb infected” value with peritoneal macrophages was “significantly enhanced”.
